Converted amounts (≈) assume the structure as drawn. Like-named read-outs stand apart in the source and are kept apart here.
Columns and labels:
HT29 = assay: Cytotoxicity assay, SRB colorimetric assay; type: cell-based; conditions: Homo sapiens; for GI50: concentration that produces 50% growth inhibition; for IC (TGI): total growth inhibition (cytostatic effect)
Description: (§1) The aim of this assay is to evaluate the in vitro cytostatic (ability to delay or arrest tumor cell growth) or cytotoxic (ability to kill tumor cells) activity of the samples being tested.
(§2) Evaluation of Cytotoxic Activity Using the SBR Colorimetric Assay
(§3) A colorimetric type of assay, using sulforhodamine B (SRB) reaction has been adapted for a quantitative measurement of cell growth and viability (following the technique described by Skehan P et al. J. Natl. Cancer Inst. 1990, 82, 1107-1112).
(§4) This form of assay employs SBS-standard 96-well cell culture microplates (Faircloth et al. Methods in Cell Science, 1988, 11(4), 201-205; Mosmann et al, Journal of Immunological. Methods, 1983, 65(1-2), 55-63). All the cell lines used in this study, derived from different types of human cancer, were obtained from the American Type Culture Collection (ATCC).
(§5) Cells were maintained in Dulbecco's Modified Eagle Medium (DMEM) supplemented with 10% Fetal Bovine Serum (FBS), 2 mM L-glutamine, 100 U/mL penicillin and 100 U/mL streptomycin at 37° C., 5% CO2 and 98% humidity. For the experiments, cells were harvested from subconfluent cultures using trypsinization and resuspended in fresh medium before counting and plating.
(§6) Cells were seeded in 96 well microtiter plates at 5×10^3 cells per well in aliquots of 150 μL, and allowed to attach to the plate surface for 18 hours in drug free medium. One control (untreated) plate of each cell line was fixed (as described below) and used for time zero reference value. Afterwards, test samples were added to the cultures in ten serial dilutions, in aliquots of 50 μL, ranging from 10 to 0.00262 μg/mL. After 48 hours exposure, the antitumor effect was estimated by the SRB method: Briefly, cells were washed twice with PBS, fixed for 15 min in 1% glutaraldehyde solution, rinsed twice in PBS, and stained in 0.4% SRB solution for 30 min at room temperature. Cells were then rinsed several times with 1% acetic acid solution and air-dried. SRB was then extracted in 10 mM trizma base solution and the absorbance measured in an automated spectrophotometric plate reader at 490 nm. Cell survival was expressed as percentage of control cell growth. The final effect of the sample being tested was estimated by applying the NCI algorithm (Boyd M R and Paull K D. Drug Dev. Res. 1995, 34, 91-104).
(§7) Using the mean±SD of triplicate cultures, a dose-response curve was automatically generated using nonlinear regression analysis. Three reference parameters were calculated (NCI algorithm) by automatic interpolation: GI50=concentration that produces 50% growth inhibition; TGI=total growth inhibition (cytostatic effect) and LC50=concentration that produces 50% net cell killing (cytotoxic effect).

MDA-MB-231 = assay: Cytotoxicity assay, SRB colorimetric assay; type: cell-based; conditions: Homo sapiens; for GI50: concentration that produces 50% growth inhibition; for IC (TGI): total growth inhibition (cytostatic effect)
Description: as §1, §2, §3, §4, §5, §6, §7

A549 = assay: Cytotoxicity assay, SRB colorimetric assay; type: cell-based; conditions: Homo sapiens; for LC50 (50% net cell killing): read-out: LC50; for GI50: concentration that produces 50% growth inhibition; for IC (TGI): total growth inhibition (cytostatic effect)
Description: as §1, §2, §3, §4, §5, §6, §7

[1] = tested on: L929 mouse fibroblast cell culture; conditions: toxicity toward L929 mouse fibroblast cell culture; cited from earlier work
Saccharomyces cerevisiae = conditions: fungus Saccharomyces cerevisiae; cited from earlier work
breast cancer carcinoma = conditions: cited from earlier work
[2] = MDA-MB-231, 48 h, read-out: LC50
[3] = HT-29, HT29, 48 hours exposure, concentration that produces 50% net cell killing (cytotoxic effect), read-out: LC50 (the source's name)
[4] = MDA-MB-231, 48 hours exposure, concentration that produces 50% net cell killing (cytotoxic effect), read-out: LC50 (the source's name)
[5] = A549, 48 hours exposure, concentration that produces 50% net cell killing (cytotoxic effect)

SMILES | CC50 (HT29; HT-29, 48 h, read-out: LC50) | GI50 (HT29; HT-29, HT29, 48 hours exposure) | IC (TGI) (HT29; HT-29, HT29, 48 hours exposure) | CC50 (MDA-MB-231; [2]) | GI50 (MDA-MB-231; MDA-MB-231, 48 hours exposure) | IC (TGI) (MDA-MB-231; MDA-MB-231, 48 hours exposure) | LC50 (50% net cell killing) (A549; A549, 48 h) | GI50 (A549; A549, 48 hours exposure) | IC (TGI) (A549; A549, 48 hours exposure) | CC50 (HT29; [3]) | CC50 (MDA-MB-231; [4]) | LC50 (50% net cell killing) (A549; [5]) | IC50 [1] | MIC (Saccharomyces cerevisiae) | IC50 (breast cancer carcinoma)
C/C(Cl)=C\C[C@@H](C/C=C\NC(=O)[C@@H](NC(=O)\C=C/C=C\C(C)=C\[C@H](C)c1ccccc1)C(C)(C)C)OC(N)=O [Compound 39] | 360 nM | 36 nM | 0.0593 µM | > 18 µM | 91.7 nM | 0.27 µM | > 18 µM | 55.7 nM | > 18 µM |  |  |  |  |  | 
C/C(Cl)=C\C[C@@H](C/C=C\NC(=O)[C@@H](NC(=O)\C=C/C=C\C(C)=C\Cc1ccccc1)C(C)(C)C)OC(N)=O [Compound 34] | 904 nM | 443 nM | 0.572 µM | > 18.4 µM | 1030 nM | 4.43 µM | > 18.4 µM | 701 nM | 2.77 µM |  |  |  |  |  | 
COc1cc(/C=C(C)/C=C\C=C/C(=O)N[C@H](C(=O)N/C=C\C[C@H](C/C=C(\C)Cl)O[Si](C)(C)C(C)(C)C)C(C)(C)C)ccc1O[Si](C)(C)C(C)(C)C [Compound 30] |  | 777 nM | 0.816 µM |  | 764 nM | 0.974 µM |  | 671 nM | 0.764 µM | 869 nM | 1.26 µM | 0.908 µM |  |  | 
C/C(Cl)=C\C[C@@H](C/C=C\NC(=O)[C@@H](NC(=O)\C=C/C=C\C(C)=C\[C@H](C)c1ccccc1)C(C)(C)C)O[Si](C)(C)C(C)(C)C [Compound 37] |  | 3670 nM | 4.46 µM |  | 5260 nM | 7.01 µM |  | 2870 nM | 5.9 µM | 5900 nM | 9.4 µM | 10.8 µM |  |  | 
C=CCCOC(=O)[C@@H](NC(=O)\C=C/C=C\C(C)=C\c1ccc(O)c(OC)c1)C(C)(C)C [Compound 36] |  | 1960 nM | 7.95 µM |  | 1150 nM | 2.57 µM |  | 3270 nM | > 23.4 µM | > 23400 nM | 19.2 µM | > 23.4 µM |  |  | 
C/C(Cl)=C\C[C@H](O)C/C=C\NC(=O)[C@@H](NC(=O)\C=C/C=C\C(C)=C\Cc1ccccc1)C(C)(C)C [Compound 33] | 3810 nM | 1100 nM | 1.82 µM | 8.01 µM | 3010 nM | 4.81 µM | 7.41 µM | 1580 nM | 3.41 µM |  |  |  |  |  | 
COC(=O)CNC(=O)CCC/C=C\NC(=O)/C=C(C)/C=C/[C@H](C)[C@H](OC)[C@H](C)[C@H](/C=C/c1ccccc1)OC [crocacin D] |  |  |  |  |  |  |  |  |  |  |  |  | 0.06 mg/L (≈ 0.111 µM) | 1.4 ng/mL (≈ 0.00259 µM) | 
C/C(Cl)=C\C[C@H](O)C/C=C\NC(=O)[C@@H](NC(=O)\C=C/C=C\C(C)=C\[C@H](C)c1ccccc1)C(C)(C)C [Compound 38] | 4680 nM | 1090 nM | 1.52 µM | > 19.5 µM | 2140 nM | 4.48 µM | > 19.5 µM | 1810 nM | 4.87 µM |  |  |  |  |  | 
C/C(Cl)=C\C[C@@H](C/C=C\NC(=O)[C@@H](NC(=O)\C=C/C=C\C(C)=C\Cc1ccccc1)C(C)(C)C)O[Si](C)(C)C(C)(C)C [Compound 32] |  | 490 nM | 0.621 µM |  | 833 nM | 1.11 µM |  | 490 nM | 0.686 µM | 849 nM | 1.5 µM | 1.06 µM |  |  | 
CC(=O)O[C@H]1C(=O)[C@@]2(C)[C@H]([C@H](OC(=O)c3ccccc3)[C@]3(O)C[C@H](OC(=O)[C@H](O)[C@@H](NC(=O)c4ccccc4)c4ccccc4)C(C)=C1C3(C)C)[C@]1(OC(C)=O)CO[C@@H]1C[C@@H]2O [paclitaxel] |  |  |  |  |  |  |  |  |  |  |  |  |  |  | 2.1 nM
C=C/C=C\[C@H](C)[C@H](OC(N)=O)[C@@H](C)[C@H](O)[C@@H](C)C/C(C)=C\[C@H](C)[C@@H](O)[C@@H](C)/C=C\[C@@H](O)C[C@@H]1OC(=O)[C@H](C)[C@@H](O)[C@H]1C (single isomer, unassigned) [(+)-discodermolide] |  |  |  |  |  |  |  |  |  |  |  |  |  |  | 2.4 nM

— patent US8710264B2, “Antitumoral compounds” (priority 2007, dated 2014)
